The text below walks through data of patent US20240299385A1 (ReWind Therapeutics NV, priority 2021, published 2024).

T1 sequence (Q13304 whole entry): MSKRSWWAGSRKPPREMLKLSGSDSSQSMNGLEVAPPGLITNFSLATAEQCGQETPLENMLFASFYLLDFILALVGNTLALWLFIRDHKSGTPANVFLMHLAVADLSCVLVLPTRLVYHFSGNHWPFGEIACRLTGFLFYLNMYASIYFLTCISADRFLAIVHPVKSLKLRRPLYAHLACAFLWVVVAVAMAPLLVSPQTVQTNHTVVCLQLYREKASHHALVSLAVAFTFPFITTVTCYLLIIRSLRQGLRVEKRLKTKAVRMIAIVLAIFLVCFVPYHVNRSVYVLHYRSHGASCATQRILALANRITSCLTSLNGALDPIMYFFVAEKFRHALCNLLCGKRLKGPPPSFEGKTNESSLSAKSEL

This test has as its target T1, human GPR17 receptor (Homo sapiens, UniProt Q13304).
T1 construct: host or cells: HEK-293
In words: Calcium mobilization functional assay (Fluo-8, FLIPR TETRA) in HEK-293 hGPR17 (Gα-q assay). Type of test: cell-based. Conditions: antagonism of MDL29,951 (~EC80) induced Ca2+ signal; cell line (HEK-293 hGPR17 or HEK-293 Suchi5 hGPR17) not given. The essentials:
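Fluo-8-loaded HEK-293 hGPR17 cells (60 min dye loading, room temperature) were preincubated with compound for twenty minutes, then challenged with agonist MDL29,951 at ~EC80, 500 nM. Intracellular calcium release via Gα-q was recorded as FLIPR fluorescence for a further 2 minutes; compounds tested in duplicate.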
(In general: Calcium assays in cells follow changes in intracellular calcium, usually with a dye or a luminescent sensor.)
With `N#Cc1ccc(NS(=O)(=O)c2c[nH]c(-c3ccccc3OC(F)(F)F)c2)c(F)c1` [Cpd 587, N-(4-cyano-2-fluorophenyl)-5-[2-(trifluoromethoxy)phenyl]-1H-pyrrole-3-sulfonamide], the IC50 (usually the concentration that gives 50% inhibition) was in the range of 0.5 to 5 µM.
For `N#Cc1cc(F)c(NS(=O)(=O)c2c[nH]c(-c3ccccc3OC(F)(F)F)c2)cc1F` [Cpd 588, N-(4-cyano-2,5-difluorophenyl)-5-[2-(trifluoromethoxy)phenyl]-1H-pyrrole-3-sulfonamide], the IC50 was less than 0.5 µM.
For the molecule `O=S(=O)(Nc1cc(F)c(C(F)(F)F)cc1F)c1c[nH]c(-c2ccccc2OC(F)(F)F)c1` [Cpd 589, N-[2,5-difluoro-4-(trifluoromethyl)phenyl]-5-[2-(trifluoromethoxy)phenyl]-1H-pyrrole-3-sulfonamide], the concentration for half-maximal inhibition (IC50) was 0.5 to 5 µM.
With `O=S(=O)(Nc1cc(F)c(C(F)(F)F)cc1F)c1c[nH]cc1Cc1cccc(C2CC2)c1` [Cpd 590, 4-[(3-cyclopropylphenyl)methyl]-N-[2,5-difluoro-4-(trifluoromethyl)phenyl]-1H-pyrrole-3-sulfonamide] the figure was 5 to 50 µM; with `O=S(=O)(Nc1cnsc1)c1c[nH]c(-c2ccccc2)c1` [Cpd 591, 5-phenyl-N-(1,2-thiazol-4-yl)-1H-pyrrole-3-sulfonamide], 5 to 50 µM.
With `N#Cc1ccc(NS(=O)(=O)c2c[nH]c(-c3ncccc3CF)c2)c(F)c1` [Cpd 592, N-(4-cyano-2-fluorophenyl)-5-[3-(fluoromethyl)pyridin-2-yl]-1H-pyrrole-3-sulfonamide], the IC50 lay within 0.5 to 5 µM.
Regarding `O=S(=O)(Nc1cc(F)cs1)c1c[nH]c(-c2ccccc2)c1` [Cpd 593, N-(4-fluorothiophene-2-yl)-5-phenyl-1H-pyrrole-3-sulfonamide], the half-inhibitory concentration (IC50) was 0.5 to 5 µM.
With `N#Cc1ccc(NS(=O)(=O)c2c[nH]c(-c3cscc3F)c2)c(F)c1` [Cpd 594, N-(4-cyano-2-fluorophenyl)-5-(4-fluorothiophene-3-yl)-1H-pyrrole-3-sulfonamide] the figure was less than 0.5 µM; with `Cc1nc(-c2cc(S(=O)(=O)Nc3cc(F)c(C(F)(F)F)cc3F)c[nH]2)cs1` [Cpd 595, N-[2,5-difluoro-4-(trifluoromethyl)phenyl]-5-(2-methyl-1,3-thiazol-4-yl)-1H-pyrrole-3-sulfonamide], 0.5 to 5 µM; with `N#Cc1cc(F)c(NS(=O)(=O)c2c[nH]c(-c3ccc(F)c(Cl)c3)c2)cc1F` [Cpd 596, 5-(3-chloro-4-fluorophenyl)-N-(4-cyano-2,5-difluorophenyl)-1H-pyrrole-3-sulfonamide], 0.5 to 5 µM.
With `O=S(=O)(Nc1cc(F)c(C(F)(F)F)cc1F)c1c[nH]c(-c2cncs2)c1` [Cpd 597, N-[2,5-difluoro-4-(trifluoromethyl)phenyl]-5-(1,3-thiazol-5-yl)-1H-pyrrole-3-sulfonamide], the 50% inhibitory concentration (IC50) was less than 0.5 µM.
As for `N#Cc1cc(F)c(NS(=O)(=O)c2c[nH]c(-c3nccs3)c2)cc1F` [Cpd 598, N-(4-cyano-2,5-difluorophenyl)-5-(1,3-thiazol-2-yl)-1H-pyrrole-3-sulfonamide], the IC50 is less than 0.5 µM.
As for `Cc1csc(-c2cc(S(=O)(=O)Nc3cc(F)c(C(F)(F)F)cc3F)c[nH]2)n1` [Cpd 599, N-[2,5-difluoro-4-(trifluoromethyl)phenyl]-5-(4-methyl-1,3-thiazol-2-yl)-1H-pyrrole-3-sulfonamide], the IC50 is less than 0.5 µM.
As for `Cn1cccc(-c2cc(S(=O)(=O)Nc3ccc(C#N)cc3F)c[nH]2)c1=O` [Cpd 600, N-(4-cyano-2-fluorophenyl)-5-(1-methyl-2-oxopyridin-3-yl)-1H-pyrrole-3-sulfonamide], the IC50 fell in the range of 5 to 50 µM.
`N#Cc1cc(F)c(NS(=O)(=O)c2c[nH]c(-c3ccccc3)c2)s1` [Cpd 601, N-(5-cyano-3-fluorothiophen-2-yl)-5-phenyl-1H-pyrrole-3-sulfonamide]: the IC50 was 0.5 to 5 µM.
For the molecule `N#Cc1ccc(NS(=O)(=O)c2c[nH]c(-c3sccc3F)c2)c(F)c1` [Cpd 602, N-(4-cyano-2-fluorophenyl)-5-(3-fluorothiophen-2-yl)-1H-pyrrole-3-sulfonamide], the IC50 is less than 0.5 µM.
Turning to `CC(C)n1cccc(-c2cc(S(=O)(=O)Nc3ccc(C#N)cc3F)c[nH]2)c1=O` [Cpd 603, N-(4-cyano-2-fluorophenyl)-5-(2-oxo-1-propan-2-ylpyridin-3-yl)-1H-pyrrole-3-sulfonamide], the half-inhibitory concentration (IC50) was in the range of 5 to 50 µM.
Next, `N#Cc1ccc(NS(=O)(=O)c2c[nH]c(-c3cccn(C(F)F)c3=O)c2)c(F)c1` [Cpd 604, N-(4-cyano-2-fluorophenyl)-5-[1-(difluoromethyl)-2-oxopyridin-3-yl]-1H-pyrrole-3-sulfonamide]: 0.5 to 5 µM; `N#Cc1cc(F)c(NS(=O)(=O)c2c[nH]cc2Cc2cc(F)cc(Cl)c2)cc1F` [Cpd 605, 4-[(3-chloro-5-fluorophenyl)methyl]-N-(4-cyano-2,5-difluorophenyl)-1H-pyrrole-3-sulfonamide]: 0.5 to 5 µM; `Cc1cnc(-c2cc(S(=O)(=O)Nc3cc(F)c(C(F)(F)F)cc3F)c[nH]2)s1` [Cpd 606, N-[2,5-difluoro-4-(trifluoromethyl)phenyl]-5-(5-methyl-1,3-thiazol-2-yl)-1H-pyrrole-3-sulfonamide]: 0.5 to 5 µM.
Next, `N#Cc1cnc(-c2cc(S(=O)(=O)Nc3cc(F)c(C(F)(F)F)cc3F)c[nH]2)s1` [Cpd 607, 5-(5-cyano-1,3-thiazol-2-yl)-N-[2,5-difluoro-4-(trifluoromethyl)phenyl]-1H-pyrrole-3-sulfonamide]: 5 to 50 µM.
Take `N#Cc1ccc(NS(=O)(=O)c2c[nH]cc2Cc2ccc3c(c2)OCC3)c(F)c1` [Cpd 608, N-(4-cyano-2-fluorophenyl)-4-(2,3-dihydro-1-benzofuran-6-ylmethyl)-1H-pyrrole-3-sulfonamide]: the IC50 was 5 to 50 µM.
Take `N#Cc1ccc(NS(=O)(=O)c2c[nH]c(F)c2Cc2ccccc2)c(F)c1` [Cpd 609, 4-benzyl-N-(4-cyano-2-fluorophenyl)-5-fluoro-1H-pyrrole-3-sulfonamide]: the concentration for half-maximal inhibition (IC50) lay within 0.5 to 5 µM.
With `N#Cc1ccc(NS(=O)(=O)c2c[nH]c(-c3nccs3)c2)c(F)c1` [Cpd 610, N-(4-cyano-2-fluorophenyl)-5-(1,3-thiazol-2-yl)-1H-pyrrole-3-sulfonamide], the half-maximal inhibitory concentration (IC50) is less than 0.5 µM.
For `O=S(=O)(Nc1cc(F)c(OC(F)F)cc1F)c1c[nH]c(-c2nnco2)c1` [Cpd 611, N-[4-(difluoromethoxy)-2,5-difluorophenyl]-5-(1,3,4-oxadiazol-2-yl)-1H-pyrrole-3-sulfonamide], the concentration for half-maximal inhibition (IC50) lay within 0.5 to 5 µM.
On to `[2H]c1ccc(-c2cc(S(=O)(=O)Nc3ccc(C#N)cc3F)c[nH]2)cc1` [Cpd 612, N-(4-cyano-2-fluorophenyl)-5-(4-deuteriophenyl)-1H-pyrrole-3-sulfonamide], for which the IC50 is less than 0.5 µM.
Consider `O=S(=O)(Nc1cc(F)c(OC(F)F)cc1F)c1c[nH]c(-c2ncns2)c1` [Cpd 613, N-[4-(difluoromethoxy)-2,5-difluorophenyl]-5-(1,2,4-thiadiazol-5-yl)-1H-pyrrole-3-sulfonamide], for which the half-maximal inhibitory concentration (IC50) was in the range of 0.5 to 5 µM.
For the molecule `N#Cc1ccc(NS(=O)(=O)c2c[nH]c(-c3cccn(CC(F)(F)F)c3=O)c2)c(F)c1` [Cpd 614, N-(4-cyano-2-fluorophenyl)-5-[2-oxo-1-(2,2,2-trifluoroethyl)pyridin-3-yl]-1H-pyrrole-3-sulfonamide], the half-inhibitory concentration (IC50) was in the range of 5 to 50 µM.
For the molecule `N#Cc1cc(F)c(NS(=O)(=O)c2c[nH]c(-c3cccc4ccoc34)c2)cc1F` [Cpd 615, 5-(1-benzofuran-7-yl)-N-(4-cyano-2,5-difluorophenyl)-1H-pyrrole-3-sulfonamide], the half-maximal inhibitory concentration (IC50) was less than 0.5 µM.
Regarding `N#Cc1ccc(NS(=O)(=O)c2c[nH]cc2CC2CCCCC2)c(F)c1` [Cpd 616, N-(4-cyano-2-fluorophenyl)-4-(cyclohexylmethyl)-1H-pyrrole-3-sulfonamide], the IC50 fell in the range of 0.5 to 5 µM.
Consider `N#Cc1cnc(-c2cc(S(=O)(=O)Nc3cc(F)c(OC(F)F)cc3F)c[nH]2)s1` [Cpd 617, 5-(5-cyano-1,3-thiazol-2-yl)-N-[4-(difluoromethoxy)-2,5-difluorophenyl]-1H-pyrrole-3-sulfonamide], for which the concentration for half-maximal inhibition (IC50) fell in the range of 5 to 50 µM.
For `O=S(=O)(Nc1cc(F)c(C(F)(F)F)cc1F)c1c[nH]c(-c2cnccn2)c1` [Cpd 618, N-[2,5-difluoro-4-(trifluoromethyl)phenyl]-5-pyrazin-2-yl-1H-pyrrole-3-sulfonamide], the IC50 lay within 0.5 to 5 µM.
Turning to `O=S(=O)(Nc1cc(F)c(C(F)(F)F)cc1F)c1c[nH]c(-c2cccnn2)c1` [Cpd 619, N-[2,5-difluoro-4-(trifluoromethyl)phenyl]-5-pyridazin-3-yl-1H-pyrrole-3-sulfonamide], the half-maximal inhibitory concentration (IC50) was less than 0.5 µM.
As to `Cn1cnc2c(-c3cc(S(=O)(=O)Nc4ccc(C#N)cc4F)c[nH]3)cccc21` [Cpd 620, N-(4-cyano-2-fluorophenyl)-5-(1-methylbenzimidazol-4-yl)-1H-pyrrole-3-sulfonamide], the half-inhibitory concentration (IC50) is 0.5 to 5 µM.
`O=S(=O)(Nc1cc(F)c(C(F)(F)F)cc1F)c1c[nH]c(C2CCC(F)(F)C2)c1` (centres unmarked) [Cpd 621, 5-(3,3-difluorocyclopentyl)-N-[2,5-difluoro-4-(trifluoromethyl)phenyl]-1H-pyrrole-3-sulfonamide]: the IC50 lay in the range of 0.5 to 5 µM.
Turning to `N#Cc1ccc(NS(=O)(=O)c2c[nH]c(CC3CC3)c2)c(F)c1` [Cpd 622, N-(4-cyano-2-fluorophenyl)-5-(cyclopropylmethyl)-1H-pyrrole-3-sulfonamide], the concentration for half-maximal inhibition (IC50) fell in the range of 0.5 to 5 µM.
For the molecule `N#Cc1ccc(NS(=O)(=O)c2c[nH]cc2Cc2ccncc2)c(F)c1` [Cpd 624, N-(4-cyano-2-fluorophenyl)-4-(pyridin-4-ylmethyl)-1H-pyrrole-3-sulfonamide], the concentration for half-maximal inhibition (IC50) lay in the range of 0.5 to 5 µM.
Regarding `N#Cc1ccc(NS(=O)(=O)c2c[nH]cc2CCc2ccccc2)c(F)c1` [Cpd 625, N-(4-cyano-2-fluorophenyl)-4-(2-phenylethyl)-1H-pyrrole-3-sulfonamide], the half-maximal inhibitory concentration (IC50) lay within 5 to 50 µM.
